Values of other authors, collected in paper PMC3176332 (European journal of medicinal chemistry, 2009).

Test system: ERβ
Conditions: relative to estradiol

O=c1c(-c2ccc(O)cc2)coc2cc(O)cc(O)c12 [compound 2, genistein]
ERβ binding selectivity: 20 fold
